Laboratory results reported in PubChem BioAssay (NCI).
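48-hour exposure; five concentrations; linearly interpolated endpoints. TGI denotes the concentration required for complete inhibition of growth.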

Key:
Test in all cases: NCI-60 cell line screen, 48 h
CAKI-1 renal = system: CAKI-1 renal
CCRF-CEM leukemia = system: CCRF-CEM leukemia
EKVX NSCLC = system: EKVX NSCLC
HCT-116 colon = system: HCT-116 colon
K-562 leukemia = system: K-562 leukemia
KM12 colon = system: KM12 colon
MALME-3M melanoma = system: MALME-3M melanoma
NCI-H522 lung = system: NCI-H522 lung
OVCAR-4 ovarian = system: OVCAR-4 ovarian
OVCAR-5 ovarian = system: OVCAR-5 ovarian
SF-539 CNS = system: SF-539 CNS
SK-MEL-2 melanoma = system: SK-MEL-2 melanoma
SK-MEL-28 melanoma = system: SK-MEL-28 melanoma
SK-MEL-5 melanoma = system: SK-MEL-5 melanoma
SK-OV-3 ovarian = system: SK-OV-3 ovarian
SNB-19 CNS = system: SNB-19 CNS
SNB-75 CNS = system: SNB-75 CNS
TK-10 renal = system: TK-10 renal
UACC-257 melanoma = system: UACC-257 melanoma
UO-31 renal = system: UO-31 renal

Structure (SMILES)	TGI (CAKI-1 renal) [µM]	TGI (CCRF-CEM leukemia) [µM]	TGI (EKVX NSCLC) [µM]	TGI (HCT-116 colon) [µM]	TGI (K-562 leukemia) [µM]	TGI (KM12 colon) [µM]	TGI (MALME-3M melanoma) [µM]	TGI (NCI-H522 lung) [µM]	TGI (OVCAR-4 ovarian) [µM]	TGI (OVCAR-5 ovarian) [µM]	TGI (SF-539 CNS) [µM]	TGI (SK-MEL-2 melanoma) [µM]	TGI (SK-MEL-28 melanoma) [µM]	TGI (SK-MEL-5 melanoma) [µM]	TGI (SK-OV-3 ovarian) [µM]	TGI (SNB-19 CNS) [µM]	TGI (SNB-75 CNS) [µM]	TGI (TK-10 renal) [µM]	TGI (UACC-257 melanoma) [µM]	TGI (UO-31 renal) [µM]
Nc1cc2c3c(cccc3c1)C(=O)N(c1ccc(OCCN3CCCCC3)cc1)C2=O	32.4	88.3	45.7	51.7	29.8	41.3	19.8	35.2	35.7	44	27.9	31.6	44.8	35.2	31.7	32.4	30.6	31.3	31.6	24.1
Cn1c(=O)c2c(no[n+]2[O-])n(C)c1=O	35.2	> 100	67.9	> 100	> 100	> 100	40	30	> 100	> 100	> 100	> 100	–	> 100	> 100	64.8	99.2	60.7	84.6	97.1
COc1ccc(-c2c(C#N)c(-c3ccc(C)cc3)n(NS(=O)(=O)c3ccccc3)c(=O)c2C#N)cc1	> 100	> 100	> 100	> 100	> 100	> 100	> 100	> 100	> 100	> 100	> 100	> 100	> 100	44.8	> 100	> 100	> 100	> 100	> 100	–
Cc1cccc(N=Nc2c(C)nn(C(=O)CC(=O)Nc3ccccc3)c2C)c1	> 100	> 100	> 100	> 100	–	> 100	> 100	> 100	> 100	> 100	> 100	> 100	> 100	> 100	> 100	> 100	> 100	> 100	–	> 100
CCOC(=O)c1sc2nc(SC)nc3c2c1N=CN3c1ccccc1Cl	89.1	> 100	> 100	> 100	> 100	> 100	> 100	> 100	42.4	> 100	–	> 100	> 100	> 100	> 100	> 100	36.3	> 100	> 100	> 100
Cc1cn(C2CC(O)C(Cn3cc(Cn4ncc(=O)[nH]c4=O)nn3)O2)c(=O)[nH]c1=O (configuration not stated)	> 100	> 100	> 100	> 100	–	> 100	> 100	> 100	> 100	> 100	> 100	> 100	> 100	> 100	> 100	> 100	> 100	> 100	> 100	> 100
COC(=O)C[C@@H]1C(C)(C)[C@@H]2O[C@@]34C[C@@H]2C(=O)[C@]1(C)[C@H]3CC[C@@]1(C)[C@H](c2ccoc2)OC(=O)C[C@]14O	> 100	> 100	> 100	> 100	> 100	> 100	> 100	> 100	> 100	> 100	> 100	> 100	> 100	> 100	> 100	> 100	> 100	> 100	> 100	–
COC(=O)C(=O)c1c2ccccc2n2ccc3c4ccccc4[nH]c3c12	> 10	> 10	> 10	> 10	> 10	> 10	> 10	> 10	> 10	> 10	> 10	> 10	–	> 10	> 10	> 10	> 10	> 10	> 10	> 10
c1ccc(C2C3=C(CCCC3)Nc3nc4cc5ccccc5cc4n32)cc1 (configuration not stated)	> 100	> 100	> 100	> 100	> 100	> 100	> 100	> 100	> 100	> 100	> 100	> 100	> 100	> 100	> 100	> 100	> 100	–	> 100	> 100
CCc1ccc(Nc2cc(=O)[nH]c(SCc3ccccc3)n2)cc1	> 100	> 100	> 100	> 100	> 100	> 100	> 100	> 100	–	> 100	> 100	> 100	–	> 100	> 100	> 100	> 100	> 100	> 100	> 100
CC(=O)Nc1ccc(C(=O)NN2C(=O)C(Cl)C2c2cc(Br)ccc2O)cc1 (configuration not stated)	–	> 100	> 100	> 100	> 100	> 100	> 100	> 100	> 100	> 100	> 91.9	> 100	> 100	> 100	> 100	> 100	> 100	> 100	> 100	32.3
CC1=NN(C(=O)CC(=O)Nc2ccccc2Cl)C(=O)C1N=Nc1ccc(C(=O)O)cc1 (configuration not stated)	> 100	> 100	> 100	> 100	> 100	> 100	> 100	> 100	> 100	> 100	> 100	> 100	> 100	> 100	–	> 100	–	> 100	> 100	> 100
COc1[nH]c(C(Cl)(Cl)Cl)c(Cl)c(=O)c1Cl	> 100	> 100	> 100	> 100	> 100	> 100	> 100	> 100	> 100	> 100	> 100	> 100	> 100	> 100	> 100	> 100	–	> 100	> 100	> 100
COc1cccc2c(NNc3ccccc3)c3ccc([N+](=O)[O-])cc3nc12	> 100	> 100	> 100	> 100	> 100	46.1	> 100	> 100	> 100	> 100	> 100	> 100	> 100	> 100	> 100	> 100	–	> 100	> 100	61
CN(c1ccccc1)S(=O)(=O)c1ccccc1[N+](=O)[O-]	> 100	> 100	> 100	> 100	> 100	> 100	> 100	> 100	> 100	> 100	> 100	> 100	> 100	–	> 100	> 100	> 100	> 100	> 100	> 100
Oc1c2cc(Br)cc1CCc1cc(Br)cc(c1O)CC2	> 100	97.5	–	30.1	> 100	37.5	> 100	45.8	–	65	58.6	52.9	> 100	33.3	76	> 100	88.3	89.9	55.6	66.6
C[C@]12CCC(=O)C=C1CC[C@@H]1[C@@H]2CC[C@]2(C)C(=O)[C@H](n3ccnc3)C[C@@H]12	> 100	> 100	> 100	> 100	> 100	> 100	> 100	> 100	> 100	> 100	> 100	> 100	> 100	> 100	–	> 100	> 100	> 100	> 100	> 100
O=C(Cn1cc(-c2ccccc2)nn1)NC1CCCC1	> 100	> 100	> 100	> 100	> 100	> 100	> 100	> 100	> 100	> 100	> 100	> 100	> 100	> 100	–	> 100	> 100	> 100	> 100	–
COC1=NC(NC2OCC(O)C(O)C2O)=C(NC(C)=O)CN1C (configuration not stated)	> 100	> 100	> 100	> 100	> 100	> 100	> 100	> 100	> 100	> 100	> 100	> 100	> 100	> 100	> 100	> 100	> 100	> 100	–	> 100
COc1ccc(CNC2=C(NC(C)=O)C(=O)c3ccccc3C2=O)cc1	–	24.7	47.3	19.9	26.4	> 50	15.2	5.17	15.1	–	21.9	19.2	> 50	14.1	> 50	> 50	49.5	18.1	21.7	40.2
O=c1[nH]c(-c2cccc(F)c2)nc2ccccc12	> 100	> 100	> 100	> 57.7	> 100	> 100	> 100	> 100	> 65.9	> 100	–	> 100	> 100	> 100	> 61.3	47.2	62.7	58.9	> 100	> 67.9
Cc1ccc(S(=O)(=O)OC2=C/C(=N\c3onc(C)c3C)c3ccccc3C2=O)cc1	37.8	–	> 100	37.7	18.9	43	43.3	21.1	29.9	42.1	79	26	> 100	38.7	> 100	64.8	> 100	92.7	34.4	30.7
O=c1c2cc([N+](=O)[O-])ccc2n(Cc2ccccc2)n1Cc1ccccc1	> 31.6	> 31.6	> 31.6	> 31.6	> 31.6	22.2	> 31.6	23.6	> 31.6	> 31.6	> 31.6	20.2	> 31.6	13.3	–	> 31.6	> 31.6	> 31.6	19.8	27.3
O=C(O)C(Cc1c[nH]c2ccccc12)N=Cc1nc(-c2ccccc2)oc1O (configuration not stated)	–	> 100	> 100	> 100	> 100	–	> 100	> 100	> 100	> 100	> 100	> 100	> 100	> 100	> 100	> 100	> 100	> 100	> 100	> 100
C=CCNC(=S)N1c2ccccc2NC(=O)CC1C (configuration not stated)	–	> 100	> 100	> 100	> 100	> 100	> 100	> 100	> 100	> 100	> 100	> 100	> 100	> 100	–	> 100	> 100	> 100	–	> 100
